Results from US8895561B2, “Compounds and methods for treating candidiasis and aspergillus infections” (Cellceutix Corporation, priority 2012, dated 2014).
In brackets after ≈: the same amount, converted by molar mass. Like-named read-outs stand apart in the source and are kept apart here.

Key:
Type in all cases: cell-based
E. faecalis 29212 = experiment: Bacterial MIC, broth microdilution, CLSI; details: Enterococcus faecalis; E. faecalis 29212
Procedure: (§1) Candida IC50s were determined by OD600 and fluorescence from vegetative cells and by MTS viability assay in the hyphal state. MICs were determined using a broth microdilution assay under standard CLSI conditions Bacteria strains: E. coli 25922 (EC), S. aureus 27660 (SA), E. faecalis 29212 (EF), P. aeruginosa 10145 (PA), and K. pneumoniae 13883 (KP). Cytotoxicity (EC50) was determined against mouse 3T3 fibroblasts, human transformed liver HepG2 cells, and human oral keratinocyte cell line, OKF6/TERT using an MTS viability assay. Candida IC50s<10 μg/mL, MICs<5 μg/mL and cytotoxicity EC50s>100 μM are indicated in green. MICs>5 μg/mL and cytotoxicity EC50s<100 μM are indicated in red. Candida IC50s (CA) were determined by OD600 and fluorescence from vegetative cells. MICs were determined using a broth microdilution assay under standard CLSI conditions Bacteria strains: E. coli 25922 (EC), S. aureus 27660 (SA), E. faecalis 29212 (EF), P. aeruginosa 10145 (PA), and K. pneumoniae 13883 (KP). Cytotoxicity (EC50) was determined against mouse 3T3 fibroblasts and human transformed liver HepG2 cells using an MTS viability assay.

P. aeruginosa 10145 = experiment: Bacterial MIC, broth microdilution, CLSI; details: Pseudomonas aeruginosa; P. aeruginosa 10145
Procedure: as §1

S. aureus 27660 = experiment: Bacterial MIC, broth microdilution, CLSI; details: Staphylococcus aureus; S. aureus 27660
Procedure: as §1

E. coli 25922 = experiment: Bacterial MIC, broth microdilution, CLSI; details: Escherichia coli; E. coli 25922
Procedure: as §1

K. pneumoniae 13883 = experiment: Bacterial MIC, broth microdilution, CLSI; details: Klebsiella pneumoniae
Procedure: as §1

[1] = tested on: C. parapsilosis (ATCC 22019); experiment: Yeast MIC; details: Lodderomyces parapsilosis, ATCC22019
Procedure: (§2) Candida MIC assays were determined in accordance with CLSI guidelines M27-A3 using a clinically isolated C. albicans strain, GDH2346.50% human serum was added to determine activity in the presence of serum.
(§3) CLSI conditions Bacteria strains: clinical isolates; yeast strains: C. dubliniensis (NCPF3949), C. glabrata (ATCC 90030), C. krusei (ATCC 6258), C. parapsilosis (ATCC 22019), and C. tropicalis (ATCC 750). Cytotoxicity (EC50) was determined against mouse 3T3 fibroblasts, human transformed liver HepG2 cells, and human oral keratinocyte cell line, OKF6/TERT using an MTS viability assay.

C. tropicalis (ATCC 750) = experiment: Yeast MIC; details: Candida tropicalis, ATCC750
Procedure: as §2, §3

C. glabrata (ATCC 90030) = experiment: Yeast MIC; details: for MIC: Nakaseomyces glabratus, ATCC90030
Procedure: as §2, §3

C. krusei (ATCC 6258) = experiment: Yeast MIC; details: Pichia kudriavzevii, ATCC6258
Procedure: as §2, §3

[2] = tested on: C. dubliniensis (NCPF3949); experiment: Yeast MIC; details: for MIC: Candida dubliniensis, NCPF3949
Procedure: as §2, §3

C. albicans GDH2346 = experiment: Candida MIC, CLSI M27-A3; details: Candida albicans, GDH2346
Procedure: as §2

[3] = tested on: C. albicans GDH2346 hyphal biofilm; experiment: Candida IC50 in the hyphal state / hyphal biofilm, MTS viability assay; details: Candida albicans
Procedure: Candida IC50s were determined by OD600 and fluorescence from vegetative cells and by MTS viability assay in the hyphal state. MICs were determined using a broth microdilution assay under standard CLSI conditions Bacteria strains: E. coli 25922 (EC), S. aureus 27660 (SA), E. faecalis 29212 (EF), P. aeruginosa 10145 (PA), and K. pneumoniae 13883 (KP). Cytotoxicity (EC50) was determined against mouse 3T3 fibroblasts, human transformed liver HepG2 cells, and human oral keratinocyte cell line, OKF6/TERT using an MTS viability assay. Candida IC50s<10 μg/mL, MICs<5 μg/mL and cytotoxicity EC50s>100 μM are indicated in green. MICs>5 μg/mL and cytotoxicity EC50s<100 μM are indicated in red. To form the biofilm, yeast were grown in RPMI/MOPS, 0.4% sucrose pH7.4 media supplemented with 10% FBS in tissue culture-treated flat bottom 96 well plates for 48 hours. The filamentous yeast cultures were then vigorously washed to remove any non-filamentous, non-attached yeast. The remaining attached filamentous biofilm yeast were incubated in saline containing serially diluted compounds for 24 hours. The cultures were aspirated to remove compound, rinsed and overlayed with RPMI/MOPS, 0.4% sucrose pH7.4 media. Biofilm viability was measured using a cell proliferation assay (CellTiter96 Aqueous Kit from Promega) and IC50s were determined using Prism GraphPad software (nonlinear fit, Table 3).

[4] = Table 5, read-out: MIC C. glabrata
[5] = Table 5, read-out: MIC C. dubliniensis
[6] = Table 5, read-out: MIC C. albicans
[7] = 48 h, 2-day hyphal biofilm cultures, read-out: Anti-C. albicans GDH2346 Hyphal (IC50)
[8] = hyphal state, read-out: IC50 Candida, Hyphal
[9] = 50% human serum, read-out: MIC C. glabrata + 50% HS
[10] = without serum, read-out: MIC C. glabrata
[11] = 50% human serum, read-out: MIC C. dubliniensis + 50% HS
[12] = without serum, read-out: MIC C. dubliniensis
[13] = 50% human serum, read-out: MIC C. albicans GDH2346 + 50% HS
[14] = without serum, read-out: MIC C. albicans GDH2346

Row | EC50 (E. faecalis 29212) | EC50 (P. aeruginosa 10145) | EC50 (S. aureus 27660) | EC50 (E. coli 25922) | EC50 (K. pneumoniae 13883) | MIC [1] | MIC (C. tropicalis (ATCC 750)) | MIC (C. glabrata (ATCC 90030); [4]) | MIC (C. krusei (ATCC 6258)) | MIC [2, 5] | MIC (C. albicans GDH2346; [6]) | IC50 [3, 7] | IC50 [3, 8] | Structure (SMILES) | MIC (C. glabrata (ATCC 90030); [9]) | MIC (C. glabrata (ATCC 90030); [10]) | MIC C. glabrata (C. glabrata (ATCC 90030); Table 5) | MIC [2, 11] | MIC [2, 12] | MIC C. dubliniensis ([2]; Table 5) | MIC (C. albicans GDH2346; [13]) | further results
1 | 0.78 µg/mL (≈ 1.03 µM) | 3.13 µg/mL (≈ 4.15 µM) | 0.78 µg/mL (≈ 1.03 µM) | 1.56 µg/mL (≈ 2.07 µM) | 1.56 µg/mL (≈ 2.07 µM) | 8 µg/mL (≈ 10.6 µM) | 4 µg/mL (≈ 5.3 µM) | 16 µg/mL (≈ 21.2 µM) | 8 µg/mL (≈ 10.6 µM) | 8 µg/mL (≈ 10.6 µM) | 4 to 8 µg/mL (≈ 5.3 to 10.6 µM) | 4.9 µg/mL (≈ 6.49 µM) | 4.9 µg/mL (≈ 6.49 µM) | NCCSc1cc(SCCN)c(C(F)(F)F)cc1NC(=O)c1cc(C(=O)Nc2cc(C(F)(F)F)c(SCCN)cc2SCCN)ncn1 [Compound 100] | – | – | – | – | – | – | – | –
2 | 0.098 µg/mL (≈ 0.202 µM) | 50 µg/mL (≈ 103 µM) | 0.39 µg/mL (≈ 0.805 µM) | > 50 µg/mL | 50 µg/mL (≈ 103 µM) | 4 to 8 µg/mL (≈ 8.25 to 16.5 µM) | 4 to 8 µg/mL (≈ 8.25 to 16.5 µM) | – | 32 µg/mL (≈ 66 µM) | – | 4 µg/mL (≈ 8.25 µM) | 0.71 µg/mL (≈ 1.47 µM) | 0.71 µg/mL (≈ 1.47 µM) | N=C(N)N1CCN(c2ccc(-c3cc(-c4ccc(N5CCN(C(=N)N)CC5)cc4)ncn3)cc2)CC1 [Compound 136] | 1 µg/mL | 4 µg/mL (≈ 8.25 µM) | 4 µg/mL (≈ 8.25 µM) | 2 µg/mL | 8 µg/mL (≈ 16.5 µM) | 8 µg/mL (≈ 16.5 µM) | 2 µg/mL | MIC (C. albicans GDH2346; [14]): 4 µg/mL (≈ 8.25 µM)
3 | 25 µg/mL (≈ 34.3 µM) | 50 µg/mL (≈ 68.5 µM) | 25 µg/mL (≈ 34.3 µM) | 50 µg/mL (≈ 68.5 µM) | > 50 µg/mL | 4 to 8 µg/mL (≈ 5.48 to 11 µM) | 4 µg/mL (≈ 5.48 µM) | 8 µg/mL (≈ 11 µM) | 8 µg/mL (≈ 11 µM) | 8 to 16 µg/mL (≈ 11 to 21.9 µM) | 8 µg/mL (≈ 11 µM) | – | 2.29 µg/mL (≈ 3.14 µM) | NCCCOc1cc(-c2cn(-c3cc(OCCCN)cc(OCCCN)c3)nn2)cc(-c2cn(-c3cc(OCCCN)cc(OCCCN)c3)nn2)c1 [Compound 137] | – | – | – | – | – | – | – | –

Row | Structure (SMILES) | EC50 (E. faecalis 29212) | EC50 (P. aeruginosa 10145) | EC50 (S. aureus 27660) | EC50 (E. coli 25922) | EC50 (K. pneumoniae 13883) | MIC [1] | MIC (C. tropicalis (ATCC 750)) | MIC (C. glabrata (ATCC 90030); [4]) | MIC (C. krusei (ATCC 6258)) | MIC [2, 5] | MIC (C. albicans GDH2346; [6]) | IC50 [3, 7] | IC50 [3, 8] | MIC (C. glabrata (ATCC 90030); [9]) | MIC (C. glabrata (ATCC 90030); [10]) | MIC C. glabrata (C. glabrata (ATCC 90030); Table 5) | MIC [2, 11] | MIC [2, 12] | MIC C. dubliniensis ([2]; Table 5) | MIC (C. albicans GDH2346; [13]) | further results
4 | NCCCOc1cc(OCCCN)cc(-c2ccc3c(c2)c2cc(-c4cc(OCCCN)cc(OCCCN)c4)ccc2n3CCCN)c1 [Compound 135] | 12.5 µg/mL (≈ 18.7 µM) | > 50 µg/mL | 12.5 µg/mL (≈ 18.7 µM) | 6.25 µg/mL (≈ 9.34 µM) | 12.5 µg/mL (≈ 18.7 µM) | 2 µg/mL (≈ 2.99 µM) | 2 to 4 µg/mL (≈ 2.99 to 5.98 µM) | – | 16 µg/mL (≈ 23.9 µM) | – | 4 µg/mL (≈ 5.98 µM) | 2.68 µg/mL (≈ 4.01 µM) | 2.68 µg/mL (≈ 4.01 µM) | 2 µg/mL | 2 µg/mL (≈ 2.99 µM) | 2 µg/mL (≈ 2.99 µM) | 1 µg/mL | 4 µg/mL (≈ 5.98 µM) | 4 µg/mL (≈ 5.98 µM) | 2 µg/mL | MIC (C. albicans GDH2346; [14]): 4 µg/mL (≈ 5.98 µM)
